These results are taken from BindingDB's records for doi:10.1021/acs.jmedchem.6b00948 (Fimbrion Therapeutics, 2016).

pIC50: −log10 of the molar value.

This assay in a line: Inhibition of Escherichia coli UTI89 FimH-mediated biofilm formation after 48 hrs by crystal violet staining-based assay.
For the molecule `Cc1cc(-c2ccc3cc[nH]c(=O)c3c2)ccc1O[C@H]1O[C@H](CO)[C@@H](O)[C@H](O)[C@@H]1O`, the negative-log IC50 (pIC50) is 6.89.

Consider `Cc1cc(-c2cccc3cnccc23)ccc1O[C@H]1O[C@H](CO)[C@@H](O)[C@H](O)[C@@H]1O`, for which the pIC50 is 6.85.

In turn, `Cc1cc(-c2ccc3c(c2)C(=O)NCC3)ccc1O[C@H]1O[C@H](CO)[C@@H](O)[C@H](O)[C@@H]1O` gave a pIC50 of 6.60.

`CNC(=O)c1cccc(-c2ccc([C@@H](O)[C@H]3O[C@H](CO)[C@@H](O)[C@H](O)[C@@H]3O)cc2)c1` had a pIC50 of 6.05.

Molecule `Cc1cc(-c2ccc3ccnc(N)c3c2)ccc1O[C@H]1O[C@H](CO)[C@@H](O)[C@H](O)[C@@H]1O` had a pIC50 of 6.47.

Consider `CNC(=O)c1cccc(-c2ccc([C@H](O)[C@H]3O[C@H](CO)[C@@H](O)[C@H](O)[C@@H]3O)c(C)c2)c1`, for which the pIC50 is 4.96.

`CNC(=O)c1cccc(-c2ccc([C@@H](O)[C@H]3O[C@H](CO)[C@@H](O)[C@H](O)[C@@H]3O)c(C)c2)c1` gave a pIC50 of 7.10.

On to `CNC(=O)c1cccc(-c2ccc(O[C@H]3O[C@H](CO)[C@@H](O)[C@H](O)[C@@H]3O)cc2)c1`, for which the negative logarithm of the IC50 (pIC50) was 5.87.

With `Cc1cc(-c2ccc3c(c2)C(=O)NCC3)ccc1[C@@H](O)[C@H]1O[C@H](CO)[C@@H](O)[C@H](O)[C@@H]1O`, the pIC50 is 7.40.

The molecule `Cc1cc(-c2ccc3cc[nH]c(=O)c3c2)ccc1[C@@H](O)[C@H]1O[C@H](CO)[C@@H](O)[C@H](O)[C@@H]1O` had a pIC50 of 7.52.

`Cc1cc(-c2ccc3ccnc(N)c3c2)ccc1[C@@H](O)[C@H]1O[C@H](CO)[C@@H](O)[C@H](O)[C@@H]1O` showed a pIC50 of 7.40.

As to `Cc1cc(-c2cccc3cnccc23)ccc1[C@@H](O)[C@H]1O[C@H](CO)[C@@H](O)[C@H](O)[C@@H]1O`, the pIC50 was 6.22.

Regarding `CNC(=O)c1cccc(-c2ccc([C@H](O)[C@H]3O[C@H](CO)[C@@H](O)[C@H](O)[C@@H]3O)cc2)c1`, the pIC50 is 4.42.

The molecule `CNC(=O)c1cccc(-c2ccc(O[C@H]3O[C@H](CO)[C@@H](O)[C@H](O)[C@@H]3O)c(C)c2)c1` had a pIC50 of 6.82.
